Laboratory results reported in the NIST ThermoML archive (doi:10.1016/j.tca.2012.01.013).
Numbers after ± are expanded uncertainties.

Assays:
[1] = xn = mol fraction of the nth substance listed; conditions: 101 kPa, Liquid, Vibrating tube method
[2] = refractive index (Na D-line) (dimensionless); xn = mol fraction of the nth substance listed; conditions: 101 kPa, Liquid, Standard Abbe refractometry

COC(=O)c1ccccc1C(=O)OC [dimethyl 1,2-benzenedicarboxylate] + CCC(C)=O
Conditions	mass density, [1] [kg/m3]	refractive index, [2]
288.15 K, x1 = 0.1002	878.718 ± 0.18	1.40705 ± 0.00037
288.15 K, x1 = 0.2001	936.554 ± 0.16	1.42733 ± 0.00037
288.15 K, x1 = 0.3002	986.029 ± 0.15	1.44555 ± 0.00037
288.15 K, x1 = 0.3997	1028.42 ± 0.17	1.46042 ± 0.00038
288.15 K, x1 = 0.4982	1064.97 ± 0.2	1.47261 ± 0.00038
288.15 K, x1 = 0.6001	1098.15 ± 0.23	1.48425 ± 0.00038
288.15 K, x1 = 0.6993	1126.71 ± 0.27	1.49362 ± 0.00039
288.15 K, x1 = 0.7993	1152.38 ± 0.31	1.50271 ± 0.00039
288.15 K, x1 = 0.9002	1175.59 ± 0.35	1.51071 ± 0.0004
288.15 K, x1 = 1	1196.26 ± 0.39	1.51779 ± 0.0004
293.15 K, x1 = 0.1002	873.583 ± 0.19	1.40471 ± 0.00037
293.15 K, x1 = 0.2001	931.496 ± 0.17	1.42489 ± 0.00037
293.15 K, x1 = 0.3002	981.04 ± 0.16	1.44315 ± 0.00037
293.15 K, x1 = 0.3997	1023.49 ± 0.17	1.45808 ± 0.00038
293.15 K, x1 = 0.4982	1060.1 ± 0.2	1.4703 ± 0.00038
293.15 K, x1 = 0.6001	1093.33 ± 0.23	1.48198 ± 0.00038
293.15 K, x1 = 0.6993	1121.93 ± 0.27	1.49141 ± 0.00039
293.15 K, x1 = 0.7993	1147.64 ± 0.31	1.50053 ± 0.00039
293.15 K, x1 = 0.9002	1170.9 ± 0.35	1.50855 ± 0.0004
293.15 K, x1 = 1	1191.59 ± 0.39	1.51565 ± 0.0004
298.15 K, x1 = 0.1002	868.432 ± 0.19	1.40224 ± 0.00037
298.15 K, x1 = 0.2001	926.423 ± 0.17	1.42243 ± 0.00037
298.15 K, x1 = 0.3002	976.038 ± 0.16	1.44075 ± 0.00037
298.15 K, x1 = 0.3997	1018.55 ± 0.17	1.45576 ± 0.00038
298.15 K, x1 = 0.4982	1055.22 ± 0.2	1.46801 ± 0.00038
298.15 K, x1 = 0.6001	1088.5 ± 0.23	1.47972 ± 0.00038
298.15 K, x1 = 0.6993	1117.16 ± 0.27	1.48918 ± 0.00039
298.15 K, x1 = 0.7993	1142.92 ± 0.3	1.49835 ± 0.00039
298.15 K, x1 = 0.9002	1166.21 ± 0.35	1.5064 ± 0.0004
298.15 K, x1 = 1	1186.93 ± 0.39	1.51354 ± 0.0004
303.15 K, x1 = 0.1002	863.253 ± 0.19	1.39965 ± 0.00037
303.15 K, x1 = 0.2001	921.334 ± 0.17	1.41998 ± 0.00037
303.15 K, x1 = 0.3002	971.032 ± 0.16	1.43839 ± 0.00037
303.15 K, x1 = 0.3997	1013.62 ± 0.17	1.45342 ± 0.00038
303.15 K, x1 = 0.4982	1050.34 ± 0.2	1.4657 ± 0.00038
303.15 K, x1 = 0.6001	1083.68 ± 0.23	1.47746 ± 0.00038
303.15 K, x1 = 0.6993	1112.38 ± 0.26	1.48696 ± 0.00039
303.15 K, x1 = 0.7993	1138.18 ± 0.3	1.49618 ± 0.00039
303.15 K, x1 = 0.9002	1161.51 ± 0.34	1.50426 ± 0.0004
303.15 K, x1 = 1	1182.28 ± 0.38	1.51146 ± 0.0004
308.15 K, x1 = 0.1002	858.059 ± 0.19	1.39705 ± 0.00037
308.15 K, x1 = 0.2001	916.232 ± 0.17	1.41752 ± 0.00037
308.15 K, x1 = 0.3002	966.01 ± 0.16	1.4359 ± 0.00037
308.15 K, x1 = 0.3997	1008.66 ± 0.17	1.45091 ± 0.00038
308.15 K, x1 = 0.4982	1045.45 ± 0.19	1.46339 ± 0.00038
308.15 K, x1 = 0.6001	1078.84 ± 0.23	1.4752 ± 0.00038
308.15 K, x1 = 0.6993	1107.6 ± 0.26	1.48475 ± 0.00039
308.15 K, x1 = 0.7993	1133.45 ± 0.3	1.49399 ± 0.00039
308.15 K, x1 = 0.9002	1156.83 ± 0.34	1.50211 ± 0.0004
308.15 K, x1 = 1	1177.62 ± 0.38	1.50943 ± 0.0004
313.15 K, x1 = 0.1002	852.838 ± 0.19	1.3943 ± 0.00037
313.15 K, x1 = 0.2001	911.111 ± 0.17	1.41502 ± 0.00037
313.15 K, x1 = 0.3002	960.975 ± 0.16	1.43328 ± 0.00037
313.15 K, x1 = 0.3997	1003.7 ± 0.16	1.44834 ± 0.00038
313.15 K, x1 = 0.4982	1040.55 ± 0.18	1.46101 ± 0.00038
313.15 K, x1 = 0.6001	1074.01 ± 0.22	1.47289 ± 0.00038
313.15 K, x1 = 0.6993	1102.82 ± 0.25	1.48252 ± 0.00039
313.15 K, x1 = 0.7993	1128.73 ± 0.29	1.49187 ± 0.00039
313.15 K, x1 = 0.9002	1152.15 ± 0.33	1.50006 ± 0.0004
313.15 K, x1 = 1	1172.97 ± 0.37	1.50736 ± 0.0004
318.15 K, x1 = 0.1002	847.588 ± 0.19	1.39158 ± 0.00037
318.15 K, x1 = 0.2001	905.966 ± 0.17	1.4124 ± 0.00037
318.15 K, x1 = 0.3002	955.922 ± 0.16	1.43077 ± 0.00037
318.15 K, x1 = 0.3997	998.73 ± 0.16	1.44591 ± 0.00038
318.15 K, x1 = 0.4982	1035.65 ± 0.18	1.45864 ± 0.00038
318.15 K, x1 = 0.6001	1069.17 ± 0.21	1.47061 ± 0.00038
318.15 K, x1 = 0.6993	1098.05 ± 0.25	1.48032 ± 0.00039
318.15 K, x1 = 0.7993	1124.01 ± 0.29	1.48973 ± 0.00039
318.15 K, x1 = 0.9002	1147.47 ± 0.33	1.49796 ± 0.0004
318.15 K, x1 = 1	1168.32 ± 0.37	1.50524 ± 0.0004
323.15 K, x1 = 0.1002	842.312 ± 0.21	1.38878 ± 0.00037
323.15 K, x1 = 0.2001	900.811 ± 0.19	1.40956 ± 0.00037
323.15 K, x1 = 0.3002	950.87 ± 0.18	1.42768 ± 0.00037
323.15 K, x1 = 0.3997	993.761 ± 0.17	1.44306 ± 0.00038
323.15 K, x1 = 0.4982	1030.75 ± 0.19	1.45602 ± 0.00038
323.15 K, x1 = 0.6001	1064.33 ± 0.22	1.4681 ± 0.00038
323.15 K, x1 = 0.6993	1093.26 ± 0.25	1.47795 ± 0.00039
323.15 K, x1 = 0.7993	1119.27 ± 0.29	1.48748 ± 0.00039
323.15 K, x1 = 0.9002	1140.78 ± 3	1.49582 ± 0.0004
323.15 K, x1 = 1	1163.67 ± 0.37	1.5032 ± 0.0004
